Measurements as given in publication PMC11243320, “Tailoring Fibroblast-Activation Protein Targeting for Theranostics: A Comparative Preclinical Evaluation of the ^68Ga- and ^177Lu-Labeled Monomeric and Dimeric Fibroblast-Activation Protein Inhibitors DOTA.SA.FAPi and DOTAGA.(SA.FAPi)2” (Molecules, 2024).
Each block holds one compound with its values, some of them ahead of it.

Legend:
[1] = system: healthy mice; assay: Biodistribution in healthy male and female mice; type: in vivo; conditions: 1 h p.i.
Procedure: Two groups of healthy mice (males and females; n = 4/group) were injected with 10 pmol of [^68Ga]Ga-DOTA.SA.FAPi (0.08–0.1 MBq) in 100 µL of NaCl 0.9% and biodistribution studies were conducted at 1 h p.i. (Supplemental Data).

[2] = system: PC3 tumor-bearing mice; assay: Ex vivo biodistribution of 177Lu-labeled radiotracers in PC3 xenografts; conditions: for Biodistribution Blood / Biodistribution Bone / Biodistribution Heart / Biodistribution Intestine / Biodistribution Kidney / Biodistribution Liver / Biodistribution Lung / Biodistribution Muscle / Biodistribution PC3-Tumor / Biodistribution Pancreas / Biodistribution Spleen / Biodistribution Stomach / Tumor/Blood ratio / Tumor/Liver ratio / Tumor/Muscle ratio / Tumor/Pancreas ratio: PC3 xenografts
Procedure: U87MG and PC3 tumor-bearing mice: Female athymic BALB/c (6 weeks/16–20 g) and male athymic BALB/c nude mice (6 weeks/20–25 g) were implanted with U87MG or PC3 cells (5 × 10^6/100 µL PBS) into their right shoulder, respectively. The animals were used for biodistribution and PET/SPECT/CT imaging studies (Animal License No: BE98/2021).
Ten pmol (0.06–0.08 MBq) of the radiotracers in 100 µL of NaCl 0.9% were injected intravenously into the tail vein of PC3 tumor-bearing mice. Biodistribution studies were conducted at 1, 4, 24, and 48 h after the injection of [^177Lu]Lu-DOTA.SA.FAPi and at 4, 24, 48, 72, and 96 h after the injection of [^177Lu]Lu-DOTAGA.(SA.FAPi)2 (Supplemental Data). […]
was counted in a γ-counter. Biodistribution data are given as the percent of injected activity per gram of tissue (% IA/g) and as means ± SD (n = 4). […]
[177Lu]Lu-DOTA.SA.FAPi and [177Lu]Lu-DOTAGA.(SA.FAPi)2
Ten pmol (0.06-0.08 MBq) of [177Lu]Lu-monomer and [177Lu]Lu-dimer in 100 µL of NaCl 0.9% were injected intravenously into the tail vein of PC3 tumor-bearing mice. The PC3 tumor-bearing mice were used between the 15th and 17th day after the xenograft implantation and its size was 281 ± 75 mm3. Animals were terminally anesthetized by intraperitoneal injection of an overdose of pentobarbital natrium (150 mg/kg; Streuli Pharma SA, Uznach, Switzerland) 1, 4, 24 and 48 h after the injection of [177Lu]Lu-DOTA.SA.FAPi and at 4, 24, 48, 72 and 96 h after the injection of [177Lu]Lu-DOTAGA.(SA.FAPi)2. The organs of interest were dissected and weighed, and the radioactivity in the tissue samples was counted in a γ-counter. The biodistribution data are given as the percent of injected activity per gram of tissue (% IA/g) and as means ± SD (n = 4). […]
0.25mm. The reconstructed data were corrected for Lutetium-177 decay, normalized, and filtered using a Gaussian 3D algorithm with a 2 mm isotropic kernel and generated using PMOD software. […]
The color scale of […]
the SPECT images was set as 0 to 13% IA/mL allowing for qualitative comparisons among the images.

Biodistribution Blood ([1]; healthy female mice): 13.5 ± 4.1 % IA/g
Biodistribution Bone ([1]; healthy female mice): 5.0 ± 0.2 % IA/g
Biodistribution Heart ([1]; healthy female mice): 5.1 ± 0.9 % IA/g
Biodistribution Intestine ([1]; healthy female mice): 3.0 ± 0.3 % IA/g
Biodistribution Kidney ([1]; healthy female mice): 5.0 ± 0.7 % IA/g
Biodistribution Liver ([1]; healthy female mice): 3.3 ± 0.4 % IA/g
Biodistribution Lung ([1]; healthy female mice): 4.3 ± 1.6 % IA/g
Biodistribution Muscle ([1]; healthy female mice): 6.3 ± 3.4 % IA/g
Biodistribution Pancreas ([1]; healthy female mice): 7.6 ± 2.6 % IA/g
Biodistribution Spleen ([1]; healthy female mice): 2.7 ± 0.7 % IA/g
Biodistribution Stomach ([1]; healthy female mice): 1.7 ± 0.04 % IA/g
Biodistribution Blood ([1]; healthy male mice): 8.5 ± 0.1 % IA/g
Biodistribution Bone ([1]; healthy male mice): 1.5 ± 0.9 % IA/g
Biodistribution Heart ([1]; healthy male mice): 3.1 ± 0.04 % IA/g
Biodistribution Intestine ([1]; healthy male mice): 3.1 ± 0.2 % IA/g
Biodistribution Kidney ([1]; healthy male mice): 3.5 ± 0.4 % IA/g
Biodistribution Liver ([1]; healthy male mice): 2.3 ± 0.1 % IA/g
Biodistribution Lung ([1]; healthy male mice): 2.7 ± 0.6 % IA/g
Biodistribution Muscle ([1]; healthy male mice): 2.0 ± 0.3 % IA/g
Biodistribution Pancreas ([1]; healthy male mice): 8.6 ± 0.1 % IA/g
Biodistribution Spleen ([1]; healthy male mice): 2.3 ± 0.1 % IA/g
Biodistribution Stomach ([1]; healthy male mice): 2.0 ± 0.3 % IA/g
SMILES: N#C[C@@H]1CC(F)(F)CN1C(=O)CNC(=O)c1ccnc2ccc(OCCCCNc3c(NCCNC(=O)CN4CCN(CC(=O)[O-])CCN(CC(=O)[O-])CCN(CC(=O)[O-])CC4)c(=O)c3=O)cc12.[68Ga+3] [[^68Ga]Ga-DOTA.SA.FAPi]

PC3 tumor uptake ([2]; PC3 tumor-bearing mice, 4 h p.i.): 8.9 ± 0.2 %I.A./g
Biodistribution Blood ([2]; 1 h): 9.1 ± 1.8 % IA/g
Biodistribution Bone ([2]; 1 h): 4.0 ± 0.5 % IA/g
Biodistribution Heart ([2]; 1 h): 3.1 ± 0.7 % IA/g
Biodistribution Intestine ([2]; 1 h): 3.2 ± 0.4 % IA/g
Biodistribution Kidney ([2]; 1 h): 4.3 ± 0.5 % IA/g
Biodistribution Liver ([2]; 1 h): 3.8 ± 0.2 % IA/g
Biodistribution Lung ([2]; 1 h): 4.3 ± 0.6 % IA/g
Biodistribution Muscle ([2]; 1 h): 3.7 ± 1.0 % IA/g
Biodistribution PC3-Tumor ([2]; 1 h): 9.6 ± 0.9 % IA/g
Biodistribution Pancreas ([2]; 1 h): 12 ± 1.1 % IA/g
Biodistribution Spleen ([2]; 1 h): 3.0 ± 0.1 % IA/g
Biodistribution Stomach ([2]; 1 h): 2.5 ± 0.3 % IA/g
Tumor/Blood ratio ([2]; 1 h): 1.1
Tumor/Liver ratio ([2]; 1 h): 2.2 ± 0.2
Tumor/Muscle ratio ([2]; 1 h): 2.8 ± 1.0
Tumor/Pancreas ratio ([2]; 1 h): 0.8 ± 0.1
Biodistribution Blood ([2]; 4 h): 3.1 ± 0.2 % IA/g
Biodistribution Bone ([2]; 4 h): 4.2 ± 0.6 % IA/g
Biodistribution Heart ([2]; 4 h): 1.5 ± 0.3 % IA/g
Biodistribution Intestine ([2]; 4 h): 1.8 ± 0.3 % IA/g
Biodistribution Kidney ([2]; 4 h): 2.6 ± 0.03 % IA/g
Biodistribution Liver ([2]; 4 h): 3.0 ± 0.1 % IA/g
Biodistribution Lung ([2]; 4 h): 1.7 ± 0.07 % IA/g
Biodistribution Muscle ([2]; 4 h): 2.3 ± 0.1 % IA/g
Biodistribution PC3-Tumor ([2]; 4 h): 8.9 ± 0.2 % IA/g
Biodistribution Pancreas ([2]; 4 h): 5.3 ± 0.4 % IA/g
Biodistribution Spleen ([2]; 4 h): 1.7 ± 0.1 % IA/g
Biodistribution Stomach ([2]; 4 h): 1.7 ± 0.5 % IA/g
Tumor/Blood ratio ([2]; 4 h): 2.9 ± 0.2
Tumor/Liver ratio ([2]; 4 h): 3.0 ± 0.1
Tumor/Muscle ratio ([2]; 4 h): 3.9 ± 0.1
Tumor/Pancreas ratio ([2]; 4 h): 1.7 ± 0.2
Biodistribution Blood ([2]; 24 h): 0.2 ± 0.09 % IA/g
Biodistribution Bone ([2]; 24 h): 0.7 ± 0.2 % IA/g
Biodistribution Heart ([2]; 24 h): 0.1 ± 0.04 % IA/g
Biodistribution Intestine ([2]; 24 h): 0.2 ± 0.02 % IA/g
Biodistribution Kidney ([2]; 24 h): 0.6 ± 0.06 % IA/g
Biodistribution Liver ([2]; 24 h): 1.9 ± 0.3 % IA/g
Biodistribution Lung ([2]; 24 h): 0.2 ± 0.03 % IA/g
Biodistribution Muscle ([2]; 24 h): 0.3 ± 0.04 % IA/g
Biodistribution PC3-Tumor ([2]; 24 h): 1.8 ± 0.1 % IA/g
Biodistribution Pancreas ([2]; 24 h): 0.3 ± 0.1 % IA/g
Biodistribution Spleen ([2]; 24 h): 0.2 ± 0.03 % IA/g
Biodistribution Stomach ([2]; 24 h): 0.1 ± 0.02 % IA/g
Biodistribution Blood ([2]; 48 h): 0.01 ± 0.0 % IA/g
Biodistribution Bone ([2]; 48 h): 0.1 ± 0.01 % IA/g
Biodistribution Heart ([2]; 48 h): 0.03 ± 0.02 % IA/g
Biodistribution Intestine ([2]; 48 h): 0.04 ± 0.0 % IA/g
Biodistribution Kidney ([2]; 48 h): 0.12 ± 0.07 % IA/g
Biodistribution Liver ([2]; 48 h): 1.1 ± 0.1 % IA/g
Biodistribution Lung ([2]; 48 h): 0.05 ± 0.04 % IA/g
Biodistribution Muscle ([2]; 48 h): 0.05 ± 0.07 % IA/g
Biodistribution PC3-Tumor ([2]; 48 h): 1.0 ± 0.1 % IA/g
Biodistribution Pancreas ([2]; 48 h): 0.06 ± 0.01 % IA/g
Biodistribution Spleen ([2]; 48 h): 0.1 ± 0.06 % IA/g
Biodistribution Stomach ([2]; 48 h): 0.05 ± 0.02 % IA/g
SMILES: N#C[C@@H]1CC(F)(F)CN1C(=O)CNC(=O)c1ccnc2ccc(OCCCCNc3c(NCCNC(=O)CN4CCN(CC(=O)[O-])CCN(CC(=O)[O-])CCN(CC(=O)[O-])CC4)c(=O)c3=O)cc12.[177Lu+3] [[^177Lu]Lu-DOTA.SA.FAPi]
